Results published in patent US8883720B2, “Template-fixed beta-hairpin peptidomimetics with CXCR4 antagonizing activity” (Polyphor AG, priority 2008, dated 2014).
Numbered stars: 1 amine (or outer) side, 2 acyl side, 3 side chain; on linkers, the order of the positions; unused ones are H or OH. Bridge positions count the residues as written; N and C are the ends. Square brackets hold non-standard residues; d marks the D form. Peptide text beside a SMILES is read from it. Abu(3S-NH2) = C[C@H](N)[C@H](N)C(=O)O; X1 = NCC[C@H](O[*:1])C(=O)[*:2]

Columns and labels:
[1] = Plasma stability, mouse plasma; type: in vitro ADME; conditions: 37° C., sampled up to 240 min, read-out: Plasmastability mouse pl. T1/2
Experimental: (§1) The stability of the depsipeptides in human and mouse plasma was determined by applying the following method: 315 μL/deep well of freshly thawed human plasma (Basler Blutspende-dienst) and mouse plasma (Harlan Sera-Lab, UK), respectively, were spiked with 35 μL/well of compound in PBS (100 μM, triplicate) and incubated at 37° C. At t=0, 15, 30, 60, 120 and 240 min aliquots of 50 μL were transferred to filtration plate wells containing 150 μL/well of acetonitrile. Following shaking for 2 min the occurred suspensions were filtrated by vacuum and finally, 100 μL of each filtrate were transferred to a propylene microtiter plate, and analyzed by LC/MS as follows: Column: Waters, XBridge C18, mobile phases: (A) water+0.1% formic acid and (B) acetonitrile/water, 95/5 (v/v)+0.1% formic acid, gradient: 5%-100% (B) in 2 minutes, electrospray ionization, MRM detection (triple quadrupole). The peak areas were determined and triplicate values are averaged. The stability is expressed in percent of the initial value at t=0. (tx/t0×100). By using the TREND function of EXCEL (Microsoft Office 2003) T1/2 were determined.

[2] = molecular target: T1, human CXCR4 (Homo sapiens, UniProt P61073); experiment: Ca2+-assay: CXCR4-antagonizing activity (SDF-1 induced calcium mobilization); type: cell-based; conditions: mouse pre-B cell line 300-19 stably transfected with human CXCR4, read-out: IC50% [nM] ± SD, CXCR4 receptor
T1 construct: expressed in transfected cells; host or cells: mouse pre-B cell line 300-19
From the text: 2.3. Ca^2+-Assay: CXCR4-Antagonizing Activity of the Depsipeptides
Increases in intracellular calcium were monitored using a Flexstation 384 (Molecular Devices, Sunnyvale, Calif.) to assay the depsipeptides for CXCR4 antagonism in a mouse pre-B cell line 300-19 stably transfected with human CXCR4 (E. Oberlin, A. Amara, F. Bachelerie, C. Bessia, J.-L. Virelizier, F. Arenzana-Seisdedos, O. Schwartz, J.-M. Heard, I. Clark-Lewis, D. F. Legler, M. Loetscher, M. Baggiolini, B. Moser, Nature 1996, 382, 833-835; M. Loetscher, T. Geiser, T. O'Reilly, R. Zwalen, M. Baggiolini, B. Moser, J. Biol. Chem. 1994, 269, 232-237; M. D'Apuuo, A. Rolink, M. Loetscher, J. A. Hoxie, I. Clark-Lewis, F. Melchors, M. Baggiolini, B. Moser, Eur. J. Immunol. 1997, 27, 1788-1793). The cells were batch loaded with the Calcium 4 Assay kit (Molecular Devices) in assay buffer (Hanks Balanced salt solution [HBSS], 20 mM HEPES, pH 7.4, 0.1% BSA) for 1 h at room temperature and labeled cells were dispensed into black well assays plates (Costar No. 3603). Calcium mobilization induced by stromal-derived factor-1 (SDF-1) was measured in the Flexstation 384 (excitation: 485 nm; emission: 525 nm) for 90 seconds. Antagonist activity of depsipeptides was determined by spiking the cells with compounds prior to SDF-1 addition. Dose response curves (compound concentration versus % maximum response for SDF-1) were determined for each antagonist and IC50 values were calculated by fitting the data to a four parameter logistic equation using SoftmaxPro 4.8 (Molecular Devices).

[3] = system: human red blood cells (hRBC); type: cell-based; conditions: red cells of human, 1 h
Experimental: 2.5. Hemolysis The depsipeptides were tested for their hemolytic activity against human red blood cells (hRBC). Fresh hRBC were washed three times with phosphate buffered saline (PBS) and centrifuged for 10 min at 2000×g. Compounds (100 μM) were incubated with 20% hRBC (v/v) for 1 h at 37° C. The final erythrocyte concentration was approximately 0.9×10^9 cells/mL. A value of 0% and 100% cell lyses, respectively, was determined by incubation of hRBC in the presence of PBS alone and 0.1% Triton X-100 in H2O, respectively. The samples were centrifuged, the supernatants were 20-fold diluted in PBS buffer and the optical densities (OD) were measured at 540 nm. The 100% lyses value (OD540H2O) gave an OD540 of approximately 1.3-1.8. Percent hemolysis was calculated as follows: (OD540peptide/OD540H2O)×100%.

[4] = in vitro; type: cell-based
Experimental: The cytotoxicity of the depsipeptides to HELA cells (Acc57) and COS-7 cells (CRL-1651) was determined using the MTT reduction assay (T. Mossman, J. Immunol. Meth. 1983, 65, 55-63; M. V. Berridge, A. S. Tan, Arch. Biochem. Biophys. 1993, 303, 474-482). Briefly, the method was as follows: 7000 HELA cells/well and 4500 COS-7 cells/well were seeded and grown in 96-well microtiter plates for 24 h at 37° C. at 5% CO2. Thereafter, time zero (Tz) was determined by MTT reduction (see below). The supernatant of the remaining wells was discarded, and fresh medium and compounds in serial dilutions (12.5, 25 and 50 μM, triplicates) were pipetted into the wells. After incubation of the cells for 48 h at 37° C. at 5% CO2 the supernatant was discarded again and 100 μL MTT reagent (0.5 mg/mL in RPMI1640 and DMEM, respectively)/well was added. Following incubation at 37° C. for 2 h the media were aspirated and the cells were spiked (100 μL isopropanol/well). The absorbance of the solubilized formazan was measured at 595 nm (OD595peptide). For each concentration averages were calculated from triplicates. The percentage of growth was calculated as follows: (OD595peptide-OD595Tz-OD595Empty well)/(OD595Tz-OD595Empty well)×100%. The GI50 (Growth Inhibition) concentrations were calculated for each depsipeptide by using a trend line function for the concentrations (50, 25, 12.5 and 0 μM), the corresponding percentages and the value 50, (=TREND (C50:C0, %50:%0, 50).

[5] = Plasma stability, human plasma; type: in vitro ADME; conditions: 37° C., sampled up to 240 min, read-out: Plasmastability human pl. T1/2
Experimental: as §1

T1 sequence (P61073 whole entry): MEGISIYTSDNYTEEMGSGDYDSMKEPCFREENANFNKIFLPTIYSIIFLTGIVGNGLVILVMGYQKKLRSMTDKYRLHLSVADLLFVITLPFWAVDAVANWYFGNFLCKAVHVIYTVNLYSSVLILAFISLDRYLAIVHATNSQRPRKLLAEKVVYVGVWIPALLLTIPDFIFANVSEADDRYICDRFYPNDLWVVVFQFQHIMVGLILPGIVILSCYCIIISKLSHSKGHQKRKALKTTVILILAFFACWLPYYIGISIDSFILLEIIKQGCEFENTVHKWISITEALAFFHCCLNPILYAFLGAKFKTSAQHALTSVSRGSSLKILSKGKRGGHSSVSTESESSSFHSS

Row | SMILES | half-life at 10 μM [1] [min] | IC50 [2] [nM] | Hemolysis at 100 μM [3] [%] | GI50 at 48 h ([4]; African green monkey) [µM] | GI50 at 48 h ([4]; human) [µM] | half-life at 10 μM [5] [min]
1 | C[C@@H]1NC(=O)[C@H](Cc2c[nH]cn2)NC(=O)[C@H](Cc2ccc(O)cc2)NC(=O)[C@@H]2CCCN2C(=O)[C@H]2CCCN2C(=O)[C@H](CCN)OC(=O)[C@@H](CCC(N)=O)NC(=O)[C@H](Cc2ccc(O)cc2)NC(=O)[C@@H]2CSSC[C@H](NC1=O)C(=O)N[C@@H](CCCNC(=N)N)C(=O)N[C@@H](C)C(=O)N1CCC[C@@H]1C(=O)N[C@@H]([C@H](C)N)C(=O)N[C@@H](CCCNC(=N)N)C(=O)N[C@@H](Cc1ccc(O)cc1)C(=O)N2 [Example 10] (cyclo(YHACRA[dP][Abu(3S-NH2)]RYCY[dQ][X1][dP]P); disulfide 4-11) | 5.3 | 16.6 ± 1.5 | 0.3 | > 50 | > 50 | 5.1
2 | C[C@@H]1NC(=O)[C@H](CCN)OC(=O)[C@H](Cc2ccc(O)cc2)NC(=O)[C@@H]2CCCN2C(=O)[C@H]2CCCN2C(=O)[C@H](CCCCN)NC(=O)[C@H](CCC(N)=O)NC(=O)[C@H](Cc2ccc(O)cc2)NC(=O)[C@@H]2CSSC[C@H](NC1=O)C(=O)N[C@@H](CO)C(=O)N[C@@H](C)C(=O)N1CCC[C@@H]1C(=O)N[C@@H]([C@H](C)N)C(=O)N[C@@H](CCCNC(=N)N)C(=O)N[C@@H](Cc1ccc(O)cc1)C(=O)N2 [Example 6] (cyclo(Y[X1]ACSA[dP][Abu(3S-NH2)]RYCYQK[dP]P); disulfide 4-11) | 4.3 | 13.5 ± 5 | 1.0 | > 50 | > 50 | 4.2
